Literature values as cited in patent US20130324399A1, “FUNGICIDAL COMPOSITIONS AND METHODS OF USE” (Bayer Cropscience LP, priority 2010, published 2013).

Test system: Pythium spp.
Settings: Triadimenol, 15% w/v

Compound: CC(C)(C)C(O)C(Oc1ccc(Cl)cc1)n1cncn1 (stereo not shown) [Triadimenol, triadimenol]
- activity against Pythium spp.: no activity
